Patent publication US10138292B2, “Cell culture medium” (BIOLAMINA AB, priority 2010, dated 2018)

Assays:
human ES cells = experiment: Cell adhesion / single cell survival 1 day after plating (Example 1); format: cell-based; conditions: for adhesion at 1 day compared with dishes including the ROCK inhibitor: coating without additives
Experimental: Ninety-six-well tissue cell culture plates were coated overnight at 4° C. with sterile solutions of the ECM proteins mouse LN-111 (Invitrogen), human recombinant LN-511, and human recombinant LN-521, all at a concentration of 30 μg/ml (5 μg/cm^2). For control cells, BD Matrigel™ hESC qualified (BD Biosciences) was used according to the manufacturer's instructions.
The assay was performed as described (Extracellular Matrix Protocols, 2000). Briefly, 96-well plates were coated by extracellular matrix proteins as described above and blocked by O3 medium containing bovine serum albumin. The ES cells were plated at a cell density of 600 cell/mm^2 upon extracellular matrix-coated plates and were left to adhere for either 1 hour or 1 day at the cell incubator. Non-adherent cells were washed away, and adherent cells were fixed for 20 min by 5% glutaraldehyde, stained by 0.1% Crystal Violet.

[1] = test system: PI3K/Akt and MEK1/Erk pathways; experiment: Western blot with antibodies to phospho-Akt / phospho-Erk; format: cell-based, human; conditions: data not shown
Experimental: HS 181 cells were trypsinized into single cell suspension as described above. For inhibition experiments, the cells were kept in O3 medium with blocking antibodies or pathway inhibitors for 30 minutes and then 450K cells were plated on 35 mm dishes precoated with the appropriate matrix coating. For other experiments, same number of cells was plated directly after trypsinization. In all cases the cells were allowed to spread for 1 hour at 37° C., 5% CO2. After two washings in ice-cold PBS, the plates with cells were snap frozen in liquid nitrogen and stored at −80° C. To prepare samples for western blots and ELISA, the plates were slowly thawed and kept on ice with 100-150 μl of lysis buffer (50 mM Tris-HCl, pH7.5, 150 mM NaCl, 0.5% deoxycholate, 0.5% SDS, 1% Triton X-100, 1% Igepal, Complete™ (Roche) and Phospho-Stop™ (Roche)) on top. Then, the cells were scraped, pipetted and sheared through a 27G ¾″ needle. After that, the cell pellets were clarified by centrifugation at 16,100 rcf for 15 minutes at 4° C. For western blots, 4-12% gradient gels were used for SDS electrophoresis and the proteins were transferred to PVDF membranes. The membrane was hybridized with the antibody of interest according to the manufacturer's instructions. […] For the densitometry analysis the films were scanned at 2,400 dpi and analyzed by the Chemilmager5500 program (1D-Multi Line densitometry mode). […]

Oct4 and Nanog mRNA = experiment: Real-time quantitative RT-PCR of pluripotency markers (Example 1); format: cell-based, human; conditions: after several passages
Experimental: Total RNA was isolated and cDNA was synthesized as described in Rodin et al., Nature Biotechnol., vol. 28, pp. 611-615 (2010). Real-time quantitative RT-PCR Taqman assays were performed using the Applied Biosystems 7300 Real-Time PCR System. All reactions were done in quadruplicate with predeveloped gene expression assay mix (Applied Biosystems) containing primers and a probe for the mRNA of interest. Additional reactions for each experiment included predeveloped gene expression assay mix for GAPDH, used to normalize the RNA input. All data were analyzed with 7300 System SDS Software version 1.4.

hES cells [2] = experiment: In vivo imaging and migration assay; format: cell-based, human
Experimental: 24-well plates were coated by extracellular matrix proteins and blocked by O3 medium containing bovine serum albumin. The ES cells were plated at cell density of 30,000-40,000 cells/cm^2 onto extracellular matrix-coated plates and left to adhere for half an hour in a cell incubator. After that, the plate was transferred into high content imaging system Operetta (PerkinElmer) equipped with environmental control unit, which allowed to keep 37° C., 5% CO2. For two movies that were made, the brightfield images were taken once in 15 minutes during 24 hours after plating using Harmony software (PerkinElmer), exported, and analyzed using ImageJ software (NIH, the US). For migration assay the images were taken every seven minutes during 18 hours after plating. Images acquired between the fifth and seventh hours after plating were analyzed using MTrackJ plug-in (University Medical Center, Rotterdam, The Netherlands). 100 attached cells on each coating were traced and mean distances from the current to the previous point of the track were calculated. Error bars show standard error of the mean s.e.m. (n=100).

hES cells [3] = experiment: Clonal survival of individualized hES cells (Example 4); format: cell-based, human; conditions: mTeSR1 medium, 250 cells per cm^2, 5 days, alkaline phosphatase staining
Experimental: hES cells were plated in mTeSR1 medium on different coatings at a density of 250 cells per cm^2 and monitored after 5 days in culture using an alkaline phosphatase staining kit.
Next, combinations of laminin-521 and E-Cadherin were tested to determine whether the combinations could sustain clonal survival of the cells. Fixed amounts of laminin-521 were used for the cell culture dish coating in combination with titrated E-Cadherin.
Additional tests were performed to test the effects of various modifications to the mTeSR1 medium. A mixture of E-Cadherin to laminin-521 in a ratio of about 1:10 w/w was used to coat the plates. […] Time-lapse photography of the cells confirmed that laminin-521/E-Cadherin coatings facilitated cell survival through proliferation of the single cells, not through the aggregation of different cells.

Integrin α6β1 = Integrin α6β1 (Homo sapiens, UniProt P05556+P23229); conditions: cited from earlier work
Sequence of Integrin α6β1 (P23229 24-1130): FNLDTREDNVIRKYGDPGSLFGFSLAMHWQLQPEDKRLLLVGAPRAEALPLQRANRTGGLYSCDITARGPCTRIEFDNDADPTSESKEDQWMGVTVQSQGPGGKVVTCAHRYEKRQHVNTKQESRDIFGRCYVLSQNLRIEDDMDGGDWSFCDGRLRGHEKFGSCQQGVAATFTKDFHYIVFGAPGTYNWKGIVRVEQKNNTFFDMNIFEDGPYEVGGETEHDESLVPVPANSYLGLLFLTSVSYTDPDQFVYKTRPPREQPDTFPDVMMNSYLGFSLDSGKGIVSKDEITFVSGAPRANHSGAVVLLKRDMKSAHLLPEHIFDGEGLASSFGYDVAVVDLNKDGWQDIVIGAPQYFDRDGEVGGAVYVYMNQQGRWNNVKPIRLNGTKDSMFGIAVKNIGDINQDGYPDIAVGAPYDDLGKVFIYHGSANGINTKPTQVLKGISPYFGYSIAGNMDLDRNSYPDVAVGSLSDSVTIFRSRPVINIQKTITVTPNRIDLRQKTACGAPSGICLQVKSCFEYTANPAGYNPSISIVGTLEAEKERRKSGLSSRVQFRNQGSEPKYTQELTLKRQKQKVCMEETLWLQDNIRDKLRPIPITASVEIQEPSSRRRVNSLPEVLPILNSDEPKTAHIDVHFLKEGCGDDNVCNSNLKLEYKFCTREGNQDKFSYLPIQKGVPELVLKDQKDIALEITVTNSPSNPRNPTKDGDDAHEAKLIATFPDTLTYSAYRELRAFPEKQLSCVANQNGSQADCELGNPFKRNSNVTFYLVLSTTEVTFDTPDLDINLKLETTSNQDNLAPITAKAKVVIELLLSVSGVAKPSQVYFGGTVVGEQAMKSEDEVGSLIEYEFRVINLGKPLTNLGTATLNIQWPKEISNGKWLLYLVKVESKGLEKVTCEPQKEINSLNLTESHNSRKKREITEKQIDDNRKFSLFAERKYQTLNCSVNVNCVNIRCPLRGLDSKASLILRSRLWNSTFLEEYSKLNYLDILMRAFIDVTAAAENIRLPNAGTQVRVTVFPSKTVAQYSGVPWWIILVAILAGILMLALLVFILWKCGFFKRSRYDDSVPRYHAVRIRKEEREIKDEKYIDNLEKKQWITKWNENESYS
Sequence of Integrin α6β1 (P05556 21-798): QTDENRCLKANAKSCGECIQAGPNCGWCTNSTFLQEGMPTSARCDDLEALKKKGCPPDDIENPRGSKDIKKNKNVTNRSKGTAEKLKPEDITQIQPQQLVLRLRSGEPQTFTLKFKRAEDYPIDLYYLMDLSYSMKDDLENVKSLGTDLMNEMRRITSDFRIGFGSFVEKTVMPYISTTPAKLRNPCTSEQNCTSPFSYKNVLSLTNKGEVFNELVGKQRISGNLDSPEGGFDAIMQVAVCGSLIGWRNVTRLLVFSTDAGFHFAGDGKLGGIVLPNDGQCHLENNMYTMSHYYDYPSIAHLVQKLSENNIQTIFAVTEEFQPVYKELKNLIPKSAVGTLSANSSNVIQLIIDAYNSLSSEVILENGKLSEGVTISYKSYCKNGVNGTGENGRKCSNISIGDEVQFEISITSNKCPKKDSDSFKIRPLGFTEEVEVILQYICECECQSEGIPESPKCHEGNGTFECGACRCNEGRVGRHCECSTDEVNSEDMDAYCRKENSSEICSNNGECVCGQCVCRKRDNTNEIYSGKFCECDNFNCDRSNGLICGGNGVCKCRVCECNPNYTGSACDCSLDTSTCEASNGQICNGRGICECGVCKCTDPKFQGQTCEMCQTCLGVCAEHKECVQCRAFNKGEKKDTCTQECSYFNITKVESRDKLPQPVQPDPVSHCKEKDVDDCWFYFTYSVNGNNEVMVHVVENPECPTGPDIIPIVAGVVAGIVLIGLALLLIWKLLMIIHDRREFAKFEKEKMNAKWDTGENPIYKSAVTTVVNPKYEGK

[4] = test system: phosphorylated myosin light chain (P-MLC); experiment: Western blot of phosphorylated myosin light chain; format: cell-based, human; conditions: one and six hours after plating
Experimental: HS 181 cells were trypsinized into single cell suspension as described above. For inhibition experiments, the cells were kept in O3 medium with blocking antibodies or pathway inhibitors for 30 minutes and then 450K cells were plated on 35 mm dishes precoated with the appropriate matrix coating. For other experiments, same number of cells was plated directly after trypsinization. […] After two washings in ice-cold PBS, the plates with cells were snap frozen in liquid nitrogen and stored at −80° C. To prepare samples for western blots and ELISA, the plates were slowly thawed and kept on ice with 100-150 μl of lysis buffer (50 mM Tris-HCl, pH7.5, 150 mM NaCl, 0.5% deoxycholate, 0.5% SDS, 1% Triton X-100, 1% Igepal, Complete™ (Roche) and Phospho-Stop™ (Roche)) on top. Then, the cells were scraped, pipetted and sheared through a 27G ¾″ needle. After that, the cell pellets were clarified by centrifugation at 16,100 rcf for 15 minutes at 4° C. For western blots, 4-12% gradient gels were used for SDS electrophoresis and the proteins were transferred to PVDF membranes. The membrane was hybridized with the antibody of interest according to the manufacturer's instructions. Chemoluminescent HRP-substrate from Amersham Biosciences was used for visualization. For the densitometry analysis the films were scanned at 2,400 dpi and analyzed by the Chemilmager5500 program (1D-Multi Line densitometry mode). […]

Substance: LN-521: protein formed by joining α5, β2 and γ1 laminin chains; human recombinant, produced in HEK293 cells
- adhesion at 1 day compared with dishes including the ROCK inhibitor (human ES cells): similar
- adhesion at 1 day compared with dishes including the ROCK inhibitor (human ES cells; listed as LN-532): no ROCK inhibitor is necessary
- cells remaining attached / surviving 24 hours after plating (human ES cells; completely dissociated H5181 cells, O3 medium without any additives, no ROCK inhibitor): survived
- adhesion at 1 day relative to Matrigel without additives (human ES cells; without additives): 20 times
- PI3K/Akt pathway activity (phospho-Akt western blot) [1]: active
- number of mRNA transcripts of Oct4 and Nanog compared with Matrigel (Oct4 and Nanog mRNA): higher numbers of transcripts
- motility of hES cells compared with other coatings (hES cells [2]; between the fifth and seventh hours after plating): higher
- migration of cells compared with Matrigel (imaging) (hES cells [2]; in vivo imaging): much faster
- clonal survival of individualized hES cells (hES cells [3]): Neither laminin-521 nor E-Cadherin alone permitted efficient clonal survival
- binding affinity of integrin α6β1 compared with LN-111 (Integrin α6β1): higher
- phosphorylation of MLC compared with cells on Matrigel and LN-111 [4]: even higher
